The numbers were not newly measured in patent US10864317B2, “Time controlled periodic infusion” (Ferrosan Medical Devices A/S, priority 2014, dated 2020), which cites them from elsewhere.

The data set relates to peripheral nerve. Particulars: ropivacaine as LA; dependent on regional and individual differences.

Turning to `CCCN1CCCC[C@H]1C(=O)Nc1c(C)cccc1C` [ropivacaine], the “duration of pain relief for nerve blocks” value is reported as “about 12 h”.
